Test results: ChEMBL document CHEMBL1138703, “Allosteric potentiators of the metabotropic glutamate receptor 2 (mGlu2). Part 2: 4-thiopyridyl acetophenones as non-tetrazole containing mGlu2 receptor potentiators” (Bioorg Med Chem Lett, 2004); call rule not given here

How the values were obtained:
[1] = molecular target: T1, Metabotropic glutamate receptor 2 (Homo sapiens, UniProt Q14416); assay: Potentiation as percent of maximum glutamate response at 1 mM
Target sequence in this assay (Q14416 19-872 limits assumed): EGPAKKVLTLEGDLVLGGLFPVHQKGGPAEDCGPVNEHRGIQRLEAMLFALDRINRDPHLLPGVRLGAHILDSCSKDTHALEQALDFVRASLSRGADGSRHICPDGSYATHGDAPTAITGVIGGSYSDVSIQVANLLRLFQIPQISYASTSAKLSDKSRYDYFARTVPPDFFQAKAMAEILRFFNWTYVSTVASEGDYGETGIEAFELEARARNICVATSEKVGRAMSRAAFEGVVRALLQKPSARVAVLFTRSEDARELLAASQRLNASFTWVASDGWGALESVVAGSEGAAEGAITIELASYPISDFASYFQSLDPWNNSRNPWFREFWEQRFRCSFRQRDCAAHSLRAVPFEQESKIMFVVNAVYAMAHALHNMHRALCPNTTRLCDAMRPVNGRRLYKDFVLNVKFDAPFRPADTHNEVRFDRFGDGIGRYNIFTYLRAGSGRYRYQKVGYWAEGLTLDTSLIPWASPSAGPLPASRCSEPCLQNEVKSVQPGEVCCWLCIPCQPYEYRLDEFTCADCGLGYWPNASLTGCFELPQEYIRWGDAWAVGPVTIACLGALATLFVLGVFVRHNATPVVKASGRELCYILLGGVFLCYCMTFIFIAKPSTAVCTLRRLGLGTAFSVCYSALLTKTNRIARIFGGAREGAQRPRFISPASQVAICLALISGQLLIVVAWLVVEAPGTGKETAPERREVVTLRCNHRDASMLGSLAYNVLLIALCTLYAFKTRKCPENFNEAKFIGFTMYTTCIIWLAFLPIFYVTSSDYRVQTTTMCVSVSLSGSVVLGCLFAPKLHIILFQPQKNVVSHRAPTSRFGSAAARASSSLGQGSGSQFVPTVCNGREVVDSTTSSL

[2] = molecular target: T1, Metabotropic glutamate receptor 2; assay: Binding affinity towards human metabotropic glutamate receptor 2 determined by [35S]GTP gamma S binding assay; assay type: functional
Target sequence in this assay (Q14416 whole entry): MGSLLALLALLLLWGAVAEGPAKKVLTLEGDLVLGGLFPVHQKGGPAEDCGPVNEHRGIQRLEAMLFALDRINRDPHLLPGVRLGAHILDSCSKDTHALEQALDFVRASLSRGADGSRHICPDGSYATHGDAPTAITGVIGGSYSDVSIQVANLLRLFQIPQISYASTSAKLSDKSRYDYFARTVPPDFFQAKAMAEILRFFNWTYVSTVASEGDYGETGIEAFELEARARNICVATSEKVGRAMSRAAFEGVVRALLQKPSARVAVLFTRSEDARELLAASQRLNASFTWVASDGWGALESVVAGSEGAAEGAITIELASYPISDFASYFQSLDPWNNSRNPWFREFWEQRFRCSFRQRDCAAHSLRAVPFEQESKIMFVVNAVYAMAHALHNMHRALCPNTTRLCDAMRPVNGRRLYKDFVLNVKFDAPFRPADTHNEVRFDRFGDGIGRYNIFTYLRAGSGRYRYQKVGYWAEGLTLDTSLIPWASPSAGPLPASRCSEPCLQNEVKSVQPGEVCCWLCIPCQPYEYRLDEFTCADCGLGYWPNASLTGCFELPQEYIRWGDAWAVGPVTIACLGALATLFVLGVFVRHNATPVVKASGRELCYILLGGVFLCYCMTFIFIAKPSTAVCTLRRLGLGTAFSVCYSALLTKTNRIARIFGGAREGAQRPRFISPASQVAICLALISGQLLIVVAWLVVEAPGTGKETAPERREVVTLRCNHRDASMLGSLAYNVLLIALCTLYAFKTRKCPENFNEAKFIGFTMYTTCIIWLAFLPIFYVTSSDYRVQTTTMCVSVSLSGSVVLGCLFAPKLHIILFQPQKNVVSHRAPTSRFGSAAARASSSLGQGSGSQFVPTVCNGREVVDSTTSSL

[3] = Bioavailability in rat (dose 2 mg/kg i.v. and 10 mg/kg p.o.); assay type: ADME, organism-based; details: in vivo, po
[4] = Ratio of brain to plasma levels was determined upon administration at 20 mpk intraperitoneally after 2 h; assay type: ADME; details: rat, brain and plasma, ip, 20 mg/kg
[5] = Total clearance in rat plasma upon administration at 2 mpk iv or 10 mpk po; assay type: ADME, organism-based; details: 2 mg/kg
[6] = Compound level in rat brain was determined upon administration at 2 mpk iv or 10 mpk po; assay type: ADME, organism-based; details: in vivo, read-out: Concentration in Brain
[7] = molecular target: T1, Metabotropic glutamate receptor 2; assay: Binding affinity for human metabotropic glutamate receptor 2 in [35S]GTP gamma S binding assay; not active at < 10 uM; assay type: functional
Target sequence in this assay (Q14416 whole entry): as above

| Potentiation [1] [%] | EC50 [2] [nM] | bioavailability [3] [%] | Kp at 2 h [4] | clearance [5] [mL/min/kg] | concentration [6] [nM] | EC50 [7] | SMILES |
| --- | --- | --- | --- | --- | --- | --- | --- |
| 18 | 4240 |  |  |  |  |  | Cc1c(OCCCCOc2ccc(-n3cncn3)cc2)ccc(C(=O)CC(C)C)c1O |
| 58 | 890 |  |  |  |  |  | Cc1c(OCc2cccc(Sc3ccncc3)c2)ccc(C(=O)CC(C)C)c1O |
| 33 | 3270 |  |  |  |  |  | Cc1c(OCCCCOc2ccccn2)ccc(C(=O)CC(C)C)c1O |
| 53 | 1500 |  |  |  |  |  | CC(C)CC(=O)c1ccc(OCCCCOc2ccccc2)c(Br)c1O |
| 33 | 340 | 3 | 1.1 | 33 | 400 |  | Cc1c(OCCCCSc2ccncc2)ccc(C(=O)CC(C)C)c1O |
| 21 | 1530 |  |  |  |  |  | Cc1c(OCCCCSc2ccccn2)ccc(C(=O)CC(C)C)c1O |
|  |  |  |  |  |  | Not Active | Cc1c(OCCCCCSc2ccncc2)ccc(C(=O)CC(C)C)c1O |
| 46 | 1720 |  |  |  |  |  | Cc1c(OCCCCOc2cccnc2)ccc(C(=O)CC(C)C)c1O |
|  |  |  |  |  |  | Not Active | Cc1c(OCCCSc2ccncc2)ccc(C(=O)CC(C)C)c1O |
| 30 | 1990 |  |  |  |  |  | Cc1c(OCCCCOc2ccccc2F)ccc(C(=O)CC(C)C)c1O |
| 24 | 4550 |  |  |  |  |  | Cc1c(OCCCCOc2ccccc2)ccc(C(=O)CC(C)C)c1O |
| 38 | 1060 |  |  |  |  |  | Cc1c(OCc2ccc(Sc3ccncc3)cc2)ccc(C(=O)CC(C)C)c1O |
| 78 | 770 |  |  |  |  |  | Cc1c(OCc2ccc(CSc3ccncc3)cc2)ccc(C(=O)CC(C)C)c1O |
|  |  | < 1 | 0.15 | 70 | 10 |  | COc1ccccc1Oc1ccc(N(Cc2cccnc2)S(=O)(=O)CC(F)(F)F)cc1 |
| 79 | 578 |  | 0.21 |  | 340 |  | Cc1c(OCc2ccc(Sc3ccncc3)cc2)ccc(C(=O)CC(C)(C)C)c1O |
| 88 | 558 | 0 |  | 75 |  |  | CC(C)CC(=O)c1ccc(OCCCCOc2cccc(F)c2F)c(Br)c1O |
| 38 | 677 |  |  |  |  |  | Cc1c(OCc2ccccc2Sc2ccncc2)ccc(C(=O)CC(C)C)c1O |
| 18 | 384 |  |  |  |  |  | Cc1c(OCCCCOc2cccc(F)c2F)ccc(C(=O)CC(C)C)c1O |
| 82 | 676 |  |  |  |  |  | CC(C)CC(=O)c1ccc(OCCCCSc2ccncc2)c(Br)c1O |
| 68 | 819 |  | 1.2 |  | 330 |  | Cc1c(OCc2cccc(CSc3ccncc3)c2)ccc(C(=O)CC(C)C)c1O |
| 67 | 575 |  |  |  |  |  | CC(C)CC(=O)c1ccc(OCCCCOc2cccnc2)c(Br)c1O |
|  |  | 63 | 0.01 | 33 |  |  | CCCc1c(OCCCCOc2ccc(-c3nnn[nH]3)cc2)ccc(C(C)=O)c1O |
|  |  | 59 | 0.03 | 15 |  |  | Cc1c(OCCCCOc2ccc(-c3nn[nH]n3)cc2)ccc(C(=O)CC(C)C)c1O |
| 40 | 3850 |  |  |  |  |  | Cc1c(OCCCCOc2ccncc2)ccc(C(=O)CC(C)C)c1O |
| 26 | 1090 |  |  |  |  |  | Cc1c(OCCCCSc2cccnc2)ccc(C(=O)CC(C)C)c1O |
